# Where a name gives a salt, the structure may show the parent alone. Read-outs that look alike come from different tables or passages of the source.
# What was measured:
# [1] = for log k′w / ElogDoct: pH 7.4
# [2] = pH 7.4, cited from earlier work
# physchem = details: pH 7.4
# [3] = Reference logDoct at pH 7.4: literature shake-flask or countercurrent data, shake-vial and pH-metric determinations, averaged
# [4] = Table 1, capacity factor extrapolated to 0% methanol, average of three to five determinations
# [5] = Table 1, average of literature references only
# [6] = Table 1, from log k′w by Equation 1
# [7] = Table 1, own shake-vial (Procedure A/B) and/or potentiometric determinations only
smiles,measurement,setting,value
"Oc1cc(Cl)cc(Cl)c1 [3,5-Dichiorophenol]",Res (logDoct − ElogDoct),[1]; Table 1,−0.40
same,log k′w,[1]; [4],3.44
same,ElogDoct,[1],4.08
same,logDoct,[2],3.68
Brc1cnc2ccccc2c1 [3-Bromoquinoline],log k′w,[1]; [4],2.53
same,logDoct,[2]; [5],3.03
Oc1cccc(Cl)c1 [3-Chlorophenol],Res (logDoct − ElogDoct),[1]; Table 1,−0.61
same,log k′w,[1]; [4],2.58
same,chromatographic logD,physchem,3.11
CC(=O)Nc1ccc(O)cc1 [Acetominophen],Res (logDoct − ElogDoct),[1]; Table 1,0.13
same,log k′w,[1]; [4],0.15
same,ElogDoct,[1]; [6],0.38
CC(=O)c1ccccc1 [Acetophenone],log k′w,[1]; [4],1.21
same,chromatographic logD,physchem,1.57
Oc1ncnc2[nH]ncc12 [Allopurinol],log k′w,[1]; [4],−0.27
same,chromatographic logD,physchem,-0.1
same,logDoct,"[3]; Table 1, average of own shake-vial/potentiometric determinations and literature references",−0.44
C=CCc1ccccc1OCC(O)CNC(C)C (stereo not drawn) [Alprenolol],log k′w,[1]; [4],0.37
same,chromatographic logD,physchem,0.62
CCCCc1oc2ccccc2c1C(=O)c1cc(I)c(OCCN(CC)CC)c(I)c1 [Amiodarone],log k′w,[1]; [4],5.10
CCOC(=O)C1=C(COCCN)NC(C)=C(C(=O)OC)C1c1ccccc1Cl (stereo not drawn) [Amlodipine],chromatographic logD,physchem,2.15
CN1[C@@H]2CC[C@H]1C[C@@H](OC(=O)C(CO)c1ccccc1)C2 (stereo partly drawn) [Atropine],log k′w,[1],−0.33
c1ccc(-c2ccc(C(c3ccccc3)n3ccnc3)cc2)cc1 (stereo not drawn) [Bifonazole],log k′w,[1]; [4],4.33
same,chromatographic logD,physchem,5.09
same,logDoct,[2]; [5],4.77
O=C1CN=C(c2ccccn2)c2cc(Br)ccc2N1 [Bromazepam],Res (logDoct − ElogDoct),[1]; Table 1,0.27
same,log k′w,[1]; [4],1.04
same,chromatographic logD,physchem,1.38
same,logDoct,[2]; [5],1.65
NC(=O)N1c2ccccc2C=Cc2ccccc21 [Carbamazepine],log k′w,[1]; [4],1.40
same,logDoct,[2]; [5],2.19
CN(C)CCC(c1ccc(Cl)cc1)c1ccccn1 (stereo not drawn) [Chlorpheniramine],log k′w,[1]; [4],1.20
CN(C)CCCN1c2ccccc2Sc2ccc(Cl)cc21 [Chlorpromazine],log k′w,[1]; [4],2.66
same,chromatographic logD,physchem,3.2
NS(=O)(=O)c1cc(C2(O)NC(=O)c3ccccc32)ccc1Cl (stereo not drawn) [Chlorthalidone],log k′w,[1]; [4],0.76
same,chromatographic logD,physchem,1.06
CN/C(=N/CCSCc1nc[nH]c1C)NC#N [Cimetidine],log k′w,[1]; [4],0.17
same,logDoct,[3]; [7],0.35
Clc1cccc(Cl)c1N=C1NCCN1 [Clonidine],log k′w,[1]; [4],0.07
same,chromatographic logD,physchem,0.29
same,logDoct,[2]; [5],0.62
Clc1ccccc1C(c1ccccc1)(c1ccccc1)n1ccnc1 [Clotrimazole],log k′w,[1]; [4],4.03
same,chromatographic logD,physchem,4.75
CN1CCN(C2=Nc3cc(Cl)ccc3Nc3ccccc32)CC1 [Clozapine],chromatographic logD,physchem,3.38
COC(=O)[C@H]1[C@@H](OC(=O)c2ccccc2)C[C@@H]2CC[C@H]1N2C [Cocaine],Res (logDoct − ElogDoct),[1]; Table 1,0.57
same,chromatographic logD,physchem,0.48
same,logDoct,[2]; [5],1.05
COc1ccc2c3c1O[C@H]1[C@@H](O)C=C[C@H]4[C@@H](C2)N(C)CC[C@@]341 [Codeine],Res (logDoct − ElogDoct),[1]; Table 1,−0.16
same,log k′w,[1]; [4],0.16
same,chromatographic logD,physchem,0.39
same,logDoct,[2]; [5],0.23
NS(=O)(=O)c1cc2c(cc1Cl)NC(C1CC3C=CC1C3)NS2(=O)=O (stereo not drawn) [Cyclothiazide],log k′w,[1]; [4],2.15
same,chromatographic logD,physchem,2.63
same,logDoct,[3]; [7],2.09
C[C@@H]1C[C@H]2[C@@H]3CCC4=CC(=O)C=C[C@]4(C)[C@@]3(F)[C@@H](O)C[C@]2(C)[C@@]1(O)C(=O)CO [Dexamethasone],chromatographic logD,physchem,2.03
same,logDoct,[2]; [5],1.83
CN1C(=O)CN=C(c2ccccc2)c2cc(Cl)ccc21 [Diazepam],log k′w,[1],2.46
CC/C(=C(/CC)c1ccc(O)cc1)c1ccc(O)cc1 [Diethylstilbestrol],log k′w,[1]; [4],4.12
same,chromatographic logD,physchem,4.85
same,logDoct,[2]; [5],5.07
COc1ccc([C@@H]2Sc3ccccc3N(CCN(C)C)C(=O)[C@@H]2OC(C)=O)cc1 [Diltiazem],log k′w,[1]; [4],1.59
same,chromatographic logD,physchem,2
same,logDoct,[3]; [7],2.06
CN(C)CCOC(c1ccccc1)c1ccccc1 [Diphenhydramine],log k′w,[1]; [4],1.04
CC(C)N(CCC(C(N)=O)(c1ccccc1)c1ccccn1)C(C)C (stereo not drawn) [Disopyramide],log k′w,[1]; [4],−1.21
same,chromatographic logD,physchem,-1.15
same,logDoct,[3]; [7],−0.66
C[C@]12CC[C@@H]3c4ccc(O)cc4CC[C@H]3[C@@H]1CC[C@@H]2O [Estradiol],chromatographic logD,physchem,3.9
O=C(NCC1CCCCN1)c1cc(OCC(F)(F)F)ccc1OCC(F)(F)F (stereo not drawn) [Flecainide],log k′w,[1]; [4],0.25
same,chromatographic logD,physchem,0.49
COC1=CC(=O)C[C@@H](C)[C@]12Oc1c(Cl)c(OC)cc(OC)c1C2=O [Griseofulvin],log k′w,[1]; [4],1.73
same,chromatographic logD,physchem,2.16
same,logDoct,[2]; [5],2.18
O=C(CCCN1CCC(O)(c2ccc(Cl)cc2)CC1)c1ccc(F)cc1 [Haloperidol],log k′w,[1]; [4],2.00
same,chromatographic logD,physchem,2.46
CC(=O)OCC(=O)[C@@]1(O)CC[C@H]2[C@@H]3CCC4=CC(=O)CC[C@]4(C)[C@H]3[C@@H](O)C[C@@]21C [Hydrocortisone-21 acetate],Res (logDoct − ElogDoct),[1]; Table 1,0.13
same,log k′w,[1]; [4],1.64
same,ElogDoct,[1]; [6],2.06
same,logDoct,[2],2.19
C[C@]12CCC(=O)C=C1CC[C@@H]1[C@@H]2[C@@H](O)C[C@@]2(C)[C@H]1CC[C@]2(O)C(=O)CO [Hydrocortisone],chromatographic logD,physchem,1.49
CN(C)CCCN1c2ccccc2CCc2ccccc21 [Imipramine],log k′w,[1]; [4],1.56
CCN(CC)CC(=O)Nc1c(C)cccc1C [Lidocaine],log k′w,[1]; [4],0.96
CCOC(=O)N1CCC(=C2c3ccc(Cl)cc3CCc3cccnc32)CC1 [Loratadine],log k′w,[1]; [4],4.02
O=C1Nc2ccc(Cl)cc2C(c2ccccc2Cl)=NC1O (stereo not drawn) [Lorazepam],Res (logDoct − ElogDoct),[1]; Table 1,−0.29
same,log k′w,[1]; [4],2.30
same,chromatographic logD,physchem,2.8
CN1C(=O)C(O)N=C(c2ccccc2Cl)c2cc(Cl)ccc21 (stereo not drawn) [Lormetazepam],Res (logDoct − ElogDoct),[1]; Table 1,−0.05
same,log k′w,[1]; [4],2.27
same,chromatographic logD,physchem,2.77
same,logDoct,[2]; [5],2.72
CSc1ncnc2c1ncn2[C@@H]1O[C@H](CO)[C@@H](O)[C@H]1O [Methylthioinosine],Res (logDoct − ElogDoct),[1]; Table 1,−0.40
same,log k′w,[1]; [4],0.25
same,ElogDoct,[1]; [6],0.49
same,logDoct,[2],0.09
COCCc1ccc(OCC(O)CNC(C)C)cc1 (stereo not drawn) [Metoprolol],log k′w,[1]; [4],−0.73
same,chromatographic logD,physchem,-0.62
Cc1ncc([N+](=O)[O-])n1CCO [Metronidazole],log k′w,[1]; [4],−0.08
same,chromatographic logD,physchem,0.12
same,logDoct,[2]; [5],−0.02
CN1CC[C@]23c4c5ccc(O)c4O[C@H]2[C@@H](O)C=C[C@H]3[C@H]1C5.O=S(=O)(O)O [Morphine sulfate],log k′w,[1],0.10
c1ccc2ccccc2c1 [Naphthalene],log k′w,[1]; [4],3.03
same,chromatographic logD,physchem,3.62
O=[N+]([O-])c1ccc(/C=N/O)o1 [Nifuroxime],log k′w,[1]; [4],1.14
same,chromatographic logD,physchem,1.49
same,logDoct,[2]; [5],1.28
NC(=O)N/N=C/c1ccc([N+](=O)[O-])o1 [Nitrofurazone],log k′w,[1]; [4],0.29
same,chromatographic logD,physchem,0.53
same,logDoct,[2]; [5],0.23
CNC(=C[N+](=O)[O-])NCCSCc1csc(CN(C)C)n1 [Nizatidine],log k′w,[1]; [4],−0.13
same,chromatographic logD,physchem,0.06
same,logDoct,[2]; [5],−0.52
COc1ccc2[nH]c([S+]([O-])Cc3ncc(C)c(OC)c3C)nc2c1 (stereo not drawn) [Omeprazole],chromatographic logD,physchem,2
CC(=O)CCCCn1c(=O)c2c(ncn2C)n(C)c1=O [Pentoxifylline],log k′w,[1]; [4],0.03
same,chromatographic logD,physchem,0.24
same,logDoct,[2]; [5],0.29
C[C@]12C=CC(=O)C=C1CC[C@@H]1[C@@H]2[C@@H](O)C[C@@]2(C)[C@H]1CC[C@]2(O)C(=O)CO [Prednisolone],log k′w,[1]; [4],1.24
same,chromatographic logD,physchem,1.6
C[C@]12C=CC(=O)C=C1CC[C@@H]1[C@@H]2C(=O)C[C@@]2(C)[C@H]1CC[C@]2(O)C(=O)CO [Prednisone],log k′w,[1]; [4],0.90
same,chromatographic logD,physchem,1.22
CCN(CC)CCNC(=O)c1ccc(N)cc1 [Procainamide],log k′w,[1]; [4],−0.69
same,chromatographic logD,physchem,-0.57
c1ccc2ncccc2c1 [Quinoline],log k′w,[1]; [4],1.52
same,chromatographic logD,physchem,1.92
same,logDoct,[2],2.03
CNC(=C[N+](=O)[O-])NCCSCc1ccc(CN(C)C)o1 [Ranitidine],chromatographic logD,physchem,-0.5
same,logDoct,[3]; [7],−0.29
Cc1nc2n(c(=O)c1CCN1CCC(c3noc4cc(F)ccc34)CC1)CCCC2 [Risperidone],Res (logDoct − ElogDoct),[1]; Table 1,0.45
same,log k′w,[1]; [4],1.23
same,chromatographic logD,physchem,1.59
CC(C)NCC(O)c1ccc(NS(C)(=O)=O)cc1 (stereo not drawn) [Sotalol],log k′w,[1]; [4],−1.47
same,chromatographic logD,physchem,-1.45
CC(C)(C)NCC(O)c1cc(O)cc(O)c1 (stereo not drawn) [Terbutaline sulfate],log k′w,[1]; [4],−1.51
same,chromatographic logD,physchem,-1.49
same,logDoct,[2]; [5],−1.35
C[C@]12CC[C@H]3[C@@H](CCC4=CC(=O)CC[C@@]43C)[C@@H]1CC[C@@H]2O [Testosterone],Res (logDoct − ElogDoct),[1]; Table 1,0.12
same,log k′w,[1]; [4],2.63
same,ElogDoct,[1],3.17
same,logDoct,[2]; [5],3.29
CCCCNc1ccc(C(=O)OCCN(C)C)cc1 [Tetracaine],Res (logDoct − ElogDoct),[1]; Table 1,0.17
same,log k′w,[1]; [4],1.70
same,chromatographic logD,physchem,2.12
same,logDoct,[2]; [5],2.29
CS(=O)(=O)c1ccc([C@@H](O)[C@@H](CO)NC(=O)C(Cl)Cl)cc1 [Thiamphenicol],log k′w,[1]; [4],−0.05
same,chromatographic logD,physchem,0.15
same,logDoct,[2]; [5],−0.27
CSc1ccc2c(c1)N(CCC1CCCCN1C)c1ccccc1S2 (stereo not drawn) [Thioridazine],log k′w,[1]; [4],2.88
same,chromatographic logD,physchem,3.45
Cc1cccc(N(C)C(=S)Oc2ccc3ccccc3c2)c1 [Tolnaftate],log k′w,[1]; [4],4.53
Nc1nc(N)c2nc(-c3ccccc3)c(N)nc2n1 [Triamterene],log k′w,[1]; [4],0.71
same,chromatographic logD,physchem,1.01
